What all share (assay type): cell-based
The subject of test [1] is preformed S. aureus ATCC43300 biofilm. In words: Biofilm disruption assay (crystal violet). The conditions noted are these: biofilm grown for 24 h. On the procedure: Bacterial biofilms created by the aggregation of bacteria is considered as one of the main reasons for the development of drug resistance. […] Subsequently, we further assessed the efficiency of 9h to eradicate the preformed biofilm. Matured S. aureus biofilm (grown for 24 h) was treated with compound 9h, and the rate of biofilm disruption was then assessed by the crystal violet staining assay.
Biofilm disruption: Briefly, S. aureus ATCC43300 (1 × 10^6 CFU/mL) was incubated in 96-well plates for 24 h to create biofilms. Next, the planktonic supernatant cells were removed. […] Then, the treated biofilm was determined by crystal violet assay. The OD values were measured at 575 nm. Biofilm disruption (%) = (ODcompound − ODblank)/(ODpositive control − ODblank) × 100%. All biological experiments were repeated three times.

Test [2] relates to S. aureus ATCC43300. In words: Cytoplasmic membrane depolarization assay, DiSC3(5). The note with it: 16 μg/mL, at 20 min. Here is the method: To explore the antibacterial mechanism of compound 9h, a cytoplasmic membrane depolarization assay was performed against S. aureus ATCC43300 using 3,3′-dipropylthiadicarbocyanine iodide (DiSC3(5)) assay. In general, DiSC3(5) could penetrate the intact cell membranes and was quenched when accumulated inside the bacterial cells. Once the cell membrane was destroyed, DiSC3(5) was released from the cell membrane, leading to a significant increase in fluorescence intensity. […] Moreover, the fluorescence intensity in S. aureus increased in a dose-dependent manner with increasing concentrations of 9h.
Mid-log S. aureus ATCC43300 was collected and then washed with PBS three times. Bacterial suspension (1.0 × 10^8 CFU/mL, 150 μL) was added to a black 96-well plate, and then fluorescent dye DiSC3(5) (10 μM, 50 μL) was pipetted into each well of plates and preincubated in the dark for 30 min. After the incubation, the fluorescence intensity was measured every minute for 6 min using a microplate reader (SpectraMax i3x, Molecular Devices, Sunnyvale, CA, USA) (λex/λem = 622 nm/670 nm). […] All biological experiments were repeated three times.

Test [3] relates to S. aureus ATCC43300. The test can be described thus: Bactericidal time-kill assay. The note with it: 8× MIC, 16 μg/mL. On the procedure: Natural AMPs have rapid bactericidal properties, and in order to examine whether active compound 9h have similar rapid bactericidal properties, the time-kill kinetics of 9h were carried out to test the bactericidal action against S. aureus ATCC4330 at four different concentrations.
S. aureus ATCC43300 was cultured at 37 °C for 6 h and diluted to 1×10^6 CFU/mL. […] At each time point, the bacterial suspension (20 μL) was diluted in PBS, and the number of bacterial colonies was measured. All biological experiments were repeated three times.

The subject of test [4] is S. aureus ATCC43300. In words: Resistance development assay (serial passage). The note with it: serial passage at 1/2 MIC for 20 days. Here is the method: The rapid increase in bacterial resistance to antibiotics is a major challenge in clinical treatment, and in order to assess the drug resistance development for compound 9h, we performed a drug resistance assay against S. aureus ATCC43300. Norfloxacin was selected as the positive control. The S. aureus cells were incubated with sub-MIC (1/2 MIC) concentration of compound 9h and were serially passaged for a duration of 20 days.
Resistance was defined as a more than 4-fold increase in the tested compound in MIC when compared to the beginning value. Briefly, S. aureus ATCC43300 was cultured (37 °C, 200 rpm) in MHB broth for 5 h and diluted to 1 × 10^6 CFU/mL. Then, the bacteria were cultured with compound 9h at a sub-MIC concentration (1/2 MIC) for 18 h. The MICs were determined according to this method for consecutive 20 days. All biological experiments were repeated three times.

A further test deals with S. aureus ATCC4330. In words: microbe, parasite or virus in culture. The conditions noted are these: Staphylococcus aureus, read-out: MBC. Here is the method:
Due to the presence of various biological enzymes in plasma, natural AMPs are susceptible to enzymatic degradation upon entering the bloods, leading to a loss of their antimicrobial activity. To evaluate the plasma stability of active compound 9h, we conducted a stability assay by determining their MBC (minimum bactericidal concentration) values in plasma and different blood components. […] The observed initial increase in the MBC value, followed by remaining unchanged, could potentially be attributed to the initial binding of compound 9h with plasma proteins, causing a reduction in its activity. Once this binding became saturated, the bactericidal activity of the compound remained stable, further indicating the good stability of compound 9h in plasma.
MBCs of the compounds were tested. Furthermore, MBCs of compounds in 50% plasma, 50% serum, and 50% blood suspension were tested. The MBC value is defined as the concentration at which the colony count is less than 5 after 18 h of incubation at 37 °C. All biological experiments were repeated three times.

For test [5], the system named is Gram-positive strains tested. The test can be described thus: MIC, summary over the Gram-positive strains tested. The conditions noted are these: read-out: MICs against the Gram-positive strains tested, range over the Gram-positive panel. Here is the method:
All target derivatives were assessed for their in vitro antibacterial activities using a broth microdilution assay to test their minimum inhibitory concentrations (MICs) against six Gram-positive strains (S. aureus ATCC31007, S. aureus ATCC25923, S. aureus ATCC43300, E. faecalis ATCC29212, B. subtilis ATCC9372, and S. epidermidis ATCC12228) and four Gram-negative strains (A. baumannii ATCC19606, K. pneumonia ATCC10031, E. coli ATCC25922, and P. aeruginosa ATCC27853). These compounds were also evaluated for their hemolytic activities and membrane selectivity by determining their HC50 (the concentration required to lyse 50% of red blood cells) and SI (HC50/MICs) values, respectively, and vancomycin was used as the positive drug.
MICs of the derivatives were determined by the micro broth dilution method according to the American Clinical and Laboratory Standards Institute (CLSI) standards. Briefly, 2-fold serial dilutions of target compounds were prepared in 96-well plates containing TSB broth. An equal volume of bacterial suspension (10^6 CFU/mL) was then pipetted into each well, and the mixture was incubated at 37 °C for 24 h. […] All biological experiments were repeated three times.

Test [6] concerns Staphylococcus aureus ATCC43300, methicillin-resistant strain. In words: microbe, parasite or virus in culture. The note with it: ATCC 43300 / MRSA; Staphylococcus aureus ATCC43300 (MRSA); read-out: MIC S. a 43300. The method in brief: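 Bacteria (suspension at 10^6 CFU/mL, mixed in equal volume) were exposed to twofold serially diluted compounds in TSB broth at 37 °C for 24 h to give minimum inhibitory concentrations. All tests were run three times.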

≈ marks a conversion by molar mass, not a printed value. Where two headings read alike, the source gives them in different places.

For the molecule `CC(=O)c1c(OCCCNCCCN2CCN(C)CC2)c2c(c3c1OC(C)(CCC=C(C)C)C=C3)OC(C)(CCC=C(C)C)C=C2` (centres unmarked) [Compound 9h, 1-(2,8-Dimethyl-2,8-bis(4-methylpent-3-en-1-yl)-5-(3-((3-(4-methylpiperazin-1-yl)propyl)amino)propoxy)-2H,8H-pyrano [2,3-f]chromen-6-yl)ethan-1-one], the results for the “eradication of preformed S. aureus biofilm” value in test [1] (8 μg/mL) and in test [1] (1× MIC (2 μg/mL)) were “about 19.83%” and 11.65%, respectively. Moreover, the “increase of DiSC3(5) fluorescence intensity vs blank control” value in the test with S. aureus ATCC43300 [2] was “about 5 fold”. The “time to complete bacterial killing” value in the test on S. aureus ATCC43300 [3] came out at 4 h. The “killing of S. aureus” value with S. aureus ATCC43300 [3] (within 1 h) is recorded as at least 99.9%. The “colony-forming unit (CFU) reduction” value in the test on S. aureus ATCC43300 [3] (within 1 h, compared with the control) is on record as 5.95 log. In the test with S. aureus ATCC43300 [4], the “fold increase in MIC” value is on record as at most 4 fold. Also, the MBC in the test on S. aureus ATCC4330 (ATCC4330, dissolved in Mueller Hinton broth (MHB)) was found to be 16 µg/mL (≈ 25.2 µM); with S. aureus ATCC4330 (ATCC4330, in 50% blood (Figure 3B)) it was 32 µg/mL (≈ 50.5 µM); in the test on S. aureus ATCC4330 (ATCC4330, in 50% plasma (Figure 3B)), 32 µg/mL (≈ 50.5 µM); with S. aureus ATCC4330 (ATCC4330, in 50% serum (Figure 3B)) it was 32 µg/mL (≈ 50.5 µM); in the test with S. aureus ATCC4330 (ATCC4330, treatment with 50% plasma, unchanged after 3 and 6 h preincubation (Figure 3A)) it was 32 µg/mL (≈ 50.5 µM). Moreover, the results for the MIC in test [5] and in test [6] were 0.5 to 8 µg/mL (≈ 0.789 to 12.6 µM) and 2 µg/mL (≈ 3.15 µM), respectively.

The record behind these values is paper PMC11350758, “Development of Xanthoangelol-Derived Compounds with Membrane-Disrupting Effects against Gram-Positive Bacteria” (Antibiotics, 2024).
